Assay results as given in patent US20220227997A1, “Elastomeric silicone compositions comprising glycerol, cyclodextrin and octenidine” (Coloplast A/S, priority 2019, published 2022).
Structures can show the parent of a compound that is named as a salt.

Experiments:
Staphylococcus aureus = conditions: suspension test after 5 minutes of exposure; cited from earlier work
Escherichia coli = conditions: suspension test after 5 minutes of exposure; cited from earlier work
Proteus mirabilis = conditions: suspension test after 5 minutes of exposure; cited from earlier work
Candida albicans = conditions: suspension test after 5 minutes of exposure; cited from earlier work
Pseudomonas aeruginosa = conditions: suspension test after 5 minutes of exposure; cited from earlier work
[1] = Solubilization of octenidine in glycerol; assay type: physicochemical; conditions: without cyclodextrin
From the text: Octenidine is an amphiphilic substance therefore its solubility in glycerol is negligible, but may form micelles for higher solubility. In this study β-cyclodextrin (βCD) was used as a tool for allowing significant amounts of hydrophobic substances to be dissolved in hydrophilic media such as glycerol. Cyclodextrins as cyclic oligosaccharides that form host-guest complexes with hydrophobic molecules thereby enabling multiple potential uses. Here octenidine (0.35 g) and β-cyclodextrin (0.3182 g) were added to glycerol. The molar ratio between octenidine and β-cyclodextrin in the example was 2:1. The mixture was heated up to 80° C. and agitated using a magnetic stirrer until a clear solution was obtained (usually no longer than 30 minutes). Obtaining a clear mixture is indicative of successful preparation of a βCD-octenidine complex.

[2] = in water; estimated by Steward et al.; cited from earlier work
[3] = system: gram positive and gram negative bacteria; conditions: generally; cited from earlier work

solubility in glycerol [1]	SMILES	Effective Concentration (Staphylococcus aureus)	Effective Concentration (Escherichia coli)	Effective Concentration (Proteus mirabilis)	Effective Concentration (Candida albicans)	Effective Concentration (Pseudomonas aeruginosa)	critical micellar concentration [2]	Effective concentrations in suspension [3]
	[H]/N=C(\N/C(=N/[H])NCCCCCCNC(=N)NC(=N)Nc1ccc(Cl)cc1)Nc1ccc(Cl)cc1 [Chlorhexidine digluconate]	>0.2%	0.1%	>0.2%	0.025%	>0.2%		
negligible	CCCCCCCCN=c1ccn(CCCCCCCCCCn2ccc(=NCCCCCCCC)cc2)cc1 [Octenidine dihydrochloride, N-octyl-1-[10-(4-octyliminopyridin-1-yl)decyl]pyridin-4-imine dihydro-chloride]	0.025%	0.025%	0.025%	0.01%	0.025%	3.79 mM	above 0.005 wt %
